The nature of series [1]: Stability in solution of a prior art pro-drug in a parenteral vehicle, followed by HPLC. In kind it is physicochemical. Conditions: ethanol/cremophor/H2O mixture (1:1:8). On the procedure:
The study in solution of a compound according to the prior art was conducted as follows:
The compound according to the prior art is placed in solution in various mixtures used for parenteral administration, the solution subsequently being followed by HPLC (Kromasil C18 4.5*250 mm column, 50% CH3CN (0.1% TFA)/50% H2O (0.1% TFA)) to determine the composition of the solution. In any case, the formation of both products, free phosphonic acid (active compound) and the transfer product, is observed over time as illustrated in the diagram below: […]

The test system of series [2] is OF1 male mice. Briefly: Formalin test (phase I), paw licking after oral administration. In kind it is in vivo. On the procedure: A/ Formalin Test (Phase I)
The molecules were studied at one time (90 min) for comparative tests and at two times, 90 and 150 minutes, so as to observe the period of action thereof.
The animals (OF1 male mice) were obtained from the Charles River breeding centre (France) and weighed […] at the start of the experiment. The weight of each mouse is taken into account for the administration of the product.
The test is based on the protocol described by S. HUNSKAAR et al., Formalin test in mice, a useful technique for evaluating mild analgesics, J. Neurosci. Methods (1995), 14, 69-75. The early part of the test ([…] after injecting formalin), is considered to reflect […], which is under study.
The mice (n=8) are placed individually in a transparent container (50×25 cm^2) and are acclimatised to this environment for 20 minutes. […] Each mouse is then immediately returned to the test container and pain (nociceptive) responses are measured for 5 minutes (early phase). Only the number of times the paw is licked is counted. […]
The analgesic action of the product is measured by the decline in the number of times the injured paw is licked, compared to the number of times the animal receiving the vehicle only licks its paw. The total (discontinuous) licking time, expressed in seconds for each mouse, is counted for […]. […]

The test system of series [3] is OF1 male mice. Briefly: Von Frey test, mechanical allodynia after partial ligation of the sciatic nerve. The series is classed as in vivo. On the procedure:
(§1) This test was described in detail by A. B. Malmberg and A. I. Basbaum, Partial Sciatic nerve injury in the mouse as a model of neuropathic pain: behavioural and neuroanatomical correlates. Pain, (1998) 76, 215-222.
(§2) It was performed on OF1 male mice (Charles River, n=39), weighing 18 to 20 g, by partial ligation of the sciatic nerve on the ipsilateral side. The animals are tested over a period of 3 to 26 days after the operation.
The mechanical allodynia is measured as described by S. R. Chaplan et al., Quantitative assessment of tactile allodynia in the rat paw, J. Neurosci. Meth. (1994), 53, 55-63. The ipsilateral (lesion) and contralateral (control) paws are tested as above, the mechanical anti-allodynia effect being measured using the Von Frey method (Malmerg A. B. and Basbaum A. I., 1998, Pain, 76, 215-222) with filaments of increasing size likewise applying an increasing pressure.

For series [4], the system named is OF1 male mice. Briefly: Plantar test, thermal hyperalgesia after partial ligation of the sciatic nerve. The note with it: 50 mg/kg oral. In kind it is in vivo. The procedure:
as §1, §2
The hyperalgesia was measured according to the method described by K. Hargreaves et al., A new sensitive method for measuring thermal nociception in cutaneous hyperalgesia, Pain (1988), 32, 77-88, using the “Plantar test” device (Bioseb, France) as the heat source. The intensity of the nociceptive stimulus is calibrated at 8-10 s with an automatic cut-off time of 20 seconds. The mean heat-induced paw withdrawal was measured on the ipsilateral (damaged nerve) and contralateral (intact nerve) paws. Each measurement is made 3 times on each paw.

Take `CCOC(=O)[C@H](C)NC(=O)[C@H](Cc1ccc(-c2ccccc2)cc1)CP(=O)(OC(C)OC(=O)C(C)C)[C@H](C)N` (some centres unmarked) [prior art compound]: the “% initial compound” value in series [1] (0 hrs after solubilisation) turned out to be 90.5%; in series [1] (3 hrs after solubilisation), 82.0%; in series [1] (6 hrs after solubilisation) it was 75.7%; in series [1] (96 hrs after solubilisation) it was 25.1%.

Consider `CCOC(=O)OC(C)OC(=O)[C@H](C)NC(=O)[C@H](Cc1ccc(-c2ccccc2)cc1)CP(=O)(O)[C@H](C)NC(=O)OC(C)OC(=O)C(C)C` (some centres unmarked) [Example 8, 2-(2-biphenyl-4-ylmethyl-3-{hydroxy-[1-(1-isobutyryloxy-ethoxycarbonylamino)-ethyl]-phosphinoyl}-propionylamino)-propionic acid 1-ethoxycarbonyloxyethyl ester], for which the “analgesic activity at 90 minutes” value in the series on OF1 male mice [2] (50 mg/kg per os) is given as “very significant analgesic activity”.

Take `NCC1(CC(=O)O)CCCCC1` [gabapentin, reference compound]: the “anti-allodynia effect used alone” value in the series on OF1 male mice [3] (30 mg/kg oral, 60 min) was “inactive”.

For the molecule `CC(OC(=O)N[C@@H](C)P(=O)(O)C[C@@H](Cc1ccc(-c2ccccc2)cc1)C(=O)N[C@@H](C)C(=O)O)OC(=O)C(C)C` (some centres unmarked) [Example 4, 2-(2-biphenyl-4-ylmethyl-3-{hydroxy-[1-(1-isobutyryloxy-ethyloxycarbonylamino)-ethyl]-phosphinoyl}-propionylamino)-propionic acid], the “anti-allodynia effect used alone” value with OF1 male mice [3] (10 mg/kg oral, 60 min) was “inactive”.

For the molecule `CCOC(=O)OC(C)OC(=O)[C@H](C)NC(=O)[C@H](Cc1ccc(-c2ccccc2)cc1)CP(=O)(O)[C@H](C)N.O=CO` (some centres unmarked) [reference molecule, reference compound], in the series with OF1 male mice [2] (100 mg/kg per os), the “analgesic activity at 90 minutes” value is given as “no activity”.

For `CC(OC(=O)N[C@@H](C)P(=O)(O)C[C@@H](Cc1ccc(-c2ccccc2)cc1)C(=O)N[C@@H](C)C(=O)OCc1ccccc1)OC(=O)C(C)C` (some centres unmarked) [Example 3, 2-(2-biphenyl-4-ylmethyl-3-{hydroxy-[1-(1-isobutyryloxy-ethoxycarbonylamino)-ethyl]-phosphinoyl}-propionylamino)-propionic acid benzyl ester], in the series with OF1 male mice [4], the “time of peak anti-hyperalgesia effect” value is reported as 90 min. In addition, the “paw withdrawal, mean of contralateral paws” value in the series on OF1 male mice [4] (90 min, 14 days after surgery, contralateral paw) came to 9.4 s. In addition, in the series on OF1 male mice [4] (period 45-120 min, ipsilateral paw), the “reduction in thermal hyperalgesia” value is 65-100%. The “time of peak anti-allodynia effect” value in the series with OF1 male mice [3] (50 mg/kg oral) amounted to 60 min. For the same molecule, in the series on OF1 male mice [3] (50 mg/kg oral, 45-120 min), the long-term anti-allodynia effect result is recorded as “significant”. Moreover, in the series on OF1 male mice [3] (50 mg/kg oral, 60 min), the “anti-allodynia effect at peak, % of the peak response (untreated control)” value came out at 75%.

Values taken from patent US10131681B2, “Aminophosphinic derivatives that can be used in the treatment of pain” (PHARMALEADS, priority 2008, dated 2018).
